Tested on: CIA
Experiment: 1-MT (IDO inhibition) reversal of 4-1BB-mediated suppression of CIA
Assay type: in vivo, mice
Description: Each mouse was injected with 200[…] of purified anti-4-1BB (3H3, rat IgG1), anti-4-1BBL (TKS-1, rat IgG1), or control rat IgG i.p. on PI days 0, 2, 4, 6, and 8. We tested the dose response of the antibodies in vivo by measuring serum IFN-γ levels for anti-4-1BB and suppression of the recall response for anti-4-1BBL. […] To treat established CIA, the mice were injected on PI days 28, 30, 32, 34, and 36. To block IFN-γ mice were injected i.p. every 4 days with 500[…] of purified R4-6A2 on PI days 0, 4, 8, and 12. Rat IgG again served as a control.
To inhibit IDO activity, slow-release polymer pellets impregnated with 1-MT (10 mg/day release rate) or placebo pellets (Innovative Research of America, Sarasota, Fla.) were implanted under the dorsal skin 1 day before the immunization. […] Because of the large size of these pellets relative to the small size of the mice, additional experiments were conducted with the implantation of two smaller pellets (10 mg/day release rate) per mouse, each containing 120 mg 1-MT, for a dose of 20 mg/day for 12 days. On day 13, two more pellets were implanted, for a total dosage period of 24 days.

SMILES: Cn1cc(CC(N)C(=O)O)c2ccccc21 (racemic) [1-MT, 1-methyl D,L-tryptophan]
- reversal of suppressive effect of anti-4-1BB on CIA (5 mg/day 1-MT, with anti-4-1BB): incomplete
- suppressive effect of anti-4-1BB on CIA (20 mg/day dose of 1-MT, slow-release pellets, with anti-4-1BB): completely reversed
- time of appearance of CIA after 1-MT reversal (1-MT with anti-4-1BB, 'in these experiments'): at the same time as in the control mice
- day disease became evident (1-MT-treated mice with 3H3, control mice first showed signs on PI day 30): 48 PI day

Source: patent publication US20070253961A1, “Pharmaceutical Composition Comprising the Anti-4-1Bb Antibody for Treating or Preventing Rheumatoid Arthritis” (ULSAN INDUSTRIAL EDUCATION FOUNDATION, priority 2003, published 2007)
